Laboratory results as given in US8841257B2, “Inhibitors of STAT3 and uses thereof” (Board of Regents, The University of Texas System, priority 2009, dated 2014).
Entries after “also recorded” stand apart in the source; their conditions may differ.

Key:
[1] = molecular target: T1, STAT3 (Homo sapiens, UniProt P40763); experiment: Inhibition of STAT3 phosphorylation in BT20 breast tumor cells (western blot); format: cell-based; set-up: endogenous in cells; host or cells: BT20 breast tumor cells; details: 5 μM; BT-20 cells
Method: Inhibition of STAT3 in BT20 Breast Tumor Cells. General procedure: 35 mm petri dishes were plated with 300,000 BT20 cells in 2 mL RPMI1640 media containing 10% FBS, […], streptomycin, and glutamine. Prodrugs were dissolved in DMSO and were added to the cells with fresh media at varying concentrations. After 2 h the cells were washed with ice cold phosphate buffered saline. Washed cells were treated with lysis buffer (50 mM Hepes, pH 7.4, 150 mM NaCl, 1.5 mM MgCl2, 1 mM EGTA, 100 mM NaF, 10 mM sodium pyrophosphate, 10% glycerol, 1% Triton X-100, 1 mM PMSF, 1 mM Na3VO4, 10 μg/mL leupeptin and 10 μg/mL aprotinin). Cell-free detergent extracts were centrifuged at 15,000 rpm in a microcentriguge for 30 min at 4° C. and the protein concentrations of the supernatants determined. Aliquots containing 12 μg of protein were separated on 8% SDS-PAGE and were transferred to PVDF filters. The filters were blocked with 5% bovine serum albumin and were probed with pStat3^Y705 antibody followed by secondary antibody, whose signal was detected with an enhanced chemiluminescence kit (ECL, Amersham, Chicago, Ill.). Filters were stripped with stripping buffer (62.5 mM Tris, pH 6.8, 2% SDS, and 0.1 M 2-mercaptoethanol) at 50° C. for 30 min. Filters were then probed with total Stat3 antibody and visualized with chemiluminescence as above.
Because DMSO is toxic, other formulations were evaluated for potential use in animal models. The compound of Example 1 was dissolved in EtOH, 20% (w/v) Trappsol (hydroxypropyl β-cyclodextran, pharmaceutical grade), or a liposomal formulation to a concentration of 5 mM. These formulations were given to cells at 0.1, 0.5, and 5 μM concentrations. At two hours, cells were lysed and pSTAT3 levels were determined by Western Blot (FIG. 3). Different formulations have little effect on inhibition of STAT3. The compound of Example 1 was dissolved in DMSO, EtOH, Trappsol, or as a 10 mol % mixture in dimyristoylphosphatidyl choline and applied to BT20 cell in culture. After two hours, cells were lysed and pSTAT3 levels determined by Western blot. To prepare liposomes a solution of 1.0 mg of the compound of Example 1, 7.2 mg of DMPC, 0.41 mg of Tween 20 in 1.0 mL of tert-butanol was lyophilized. A control lipid formulation of 7.2 mg of DMPC and 0.41 mg of Tween 20 in 1.0 mL of tert-butanol was lyophilized. These samples were mixed with 236 μL of H2O and were vortexed and sonicated for 5 min.
The compounds are selective for STAT3 over STAT1 in BT20 breast tumor cells. BT20 cells prepared as above and were treated with 5 μM of the compound of Example 1 for two hours then were treated with 25 ng/mL of interferon γ (IFNγ). […] (FIG. 4, bottom panel).
Time course of inhibition of STAT3 phosphorylation in BT20 cells. BT20 cells were plated as above and treated with the compounds from Examples 1 and 6 and western blots were performed at varying time intervals.

[2] = molecular target: T1, STAT3; experiment: Inhibition of Stat3 tyrosine705 phosphorylation in MDA-MB-468 cells; format: cell-based; set-up: host or cells: MDA-MB-468 breast tumor cells; details: prodrug in DMSO, 2 h
Method: Inhibition of Stat3 tyrosine705 phosphorylation in MDA-MB-468 cells. MDA-MB-468 breast tumor cells (0.4×10^6) were plated onto 35 mm culture dishes and were allowed to grow overnight. Prodrugs were prepared as 10 mM stock solutions in DMSO and aliquots were added to the culture media to give the correct final concentrations. After 2 h the cells were washed with ice cold phosphate buffered saline. Washed cells were treated with lysis buffer (50 mM Hepes, pH 7.4, 150 mM NaCl, 1.5 mM MgCl2, 1 mM EGTA, 100 mM NaF, 10 mM sodium pyrophosphate, 10% glycerol, 1% Triton X-100, 1 mM PMSF, 1 mM Na3VO4, 10 μg/mL leupeptin and 10 μg/mL aprotinin). Cell-free detergent extracts were centrifuged at 15,000 rpm in a microcentriguge for 30 min at 4° C. and the protein concentrations of the supernatants determined. Aliquots containing 12 μg of protein were separated on 8% SDS-PAGE and were transferred to PVDF filters. The filters were blocked with 5% bovine serum albumin and were probed with pStat3^Y705 antibody followed by secondary antibody, whose signal was detected with an enhanced chemiluminescence kit (ECL, Amersham, Chicago, Ill.). Filters were stripped with stripping buffer (62.5 mM Tris, pH 6.8, 2% SDS, and 0.1 M 2-mercaptoethanol) at 50° C. for 30 min. Filters were then probed with total Stat3 antibody and visualized with chemiluminescence as above.

T1 sequence (P40763 whole entry): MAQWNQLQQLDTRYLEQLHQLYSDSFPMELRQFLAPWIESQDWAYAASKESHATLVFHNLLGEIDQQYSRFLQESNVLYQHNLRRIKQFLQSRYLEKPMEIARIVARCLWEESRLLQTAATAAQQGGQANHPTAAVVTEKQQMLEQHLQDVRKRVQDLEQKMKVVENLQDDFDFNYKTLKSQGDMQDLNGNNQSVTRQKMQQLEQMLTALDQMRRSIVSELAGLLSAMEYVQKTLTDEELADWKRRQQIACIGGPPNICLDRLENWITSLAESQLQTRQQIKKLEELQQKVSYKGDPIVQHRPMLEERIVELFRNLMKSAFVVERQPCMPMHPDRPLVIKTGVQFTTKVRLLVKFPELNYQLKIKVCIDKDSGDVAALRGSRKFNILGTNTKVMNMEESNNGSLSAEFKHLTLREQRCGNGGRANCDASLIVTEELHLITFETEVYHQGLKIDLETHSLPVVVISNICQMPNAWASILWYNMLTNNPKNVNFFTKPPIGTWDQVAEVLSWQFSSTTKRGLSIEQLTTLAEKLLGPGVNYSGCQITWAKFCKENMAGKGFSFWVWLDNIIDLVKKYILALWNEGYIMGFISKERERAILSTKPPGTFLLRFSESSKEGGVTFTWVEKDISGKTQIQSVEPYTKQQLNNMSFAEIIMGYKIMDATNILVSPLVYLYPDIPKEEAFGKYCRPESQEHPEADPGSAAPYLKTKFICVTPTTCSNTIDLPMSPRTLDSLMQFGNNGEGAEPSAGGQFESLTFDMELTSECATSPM

Row | SMILES | inhibition of Tyr705 phosphorylation of Stat3 (potency in words) [2] | phosphorylation of STAT3 at the indicated time points [1]
1 | C/C(=C\C(=O)N[C@H]1CCc2cccc3c2N(C1=O)[C@H](C(=O)N[C@H](C)CCC(N)=O)C3)c1ccc(OP(=O)(OCOC(=O)C(C)(C)C)OCOC(=O)C(C)(C)C)cc1 [Example 6, (2E)-3-[4-[[bis[(2,2-dimethyl-1-oxopropoxy)methoxy]phosphinyl]oxy]phenyl]-but-2-enoyl-Haic-(R)-4-aminopentamide] |  | inhibit the phosphorylation of STAT3
2 | CCCC[C@H](NC(=O)/C=C(\C)c1ccc(C(F)(F)P(=O)(OCOC(=O)C(C)(C)C)OCOC(=O)C(C)(C)C)cc1)C(=O)N1C[C@@H]2CC2[C@@H]1C(=O)N[C@@H](CCC(N)=O)[C@@H](C)OCc1ccccc1 (stereo partly drawn) [Example 17, (2E)-3-[4-[[bis[(2,2-dimethyl-1-oxopropoxy)methoxy]phosphinyl]difluoromethyl]phenyl]-but-2-enoyl-norleucinyl-(2R,3S,4R)-methanoprolinyl-(4S,5R)-4-amino-5-benzyloxyhexamide] | very weak inhibitors; also recorded: much less potent | 
3 | CCCC[C@H](NC(=O)/C=C(\C)c1ccc(C(F)(F)P(=O)(OCOC(=O)C(C)(C)C)OCOC(=O)C(C)(C)C)cc1)C(=O)N1C[C@@H]2CC2[C@@H]1C(=O)N[C@H](C)CCC(N)=O (stereo partly drawn) [Example 19, (2E)-3-[4-[[bis[(2,2-dimethyl-1-oxopropoxy)methoxy]phosphinyl]difluoromethyl]phenyl]-but-2-enoyl-norleucinyl-(2R,3S,4R)-methanoprolinyl-(R)-4-aminopentamide] | very weak inhibitors; also recorded: much less potent | 
4 | CCCC[C@H](NC(=O)/C=C(\C)c1ccc(C(F)(F)P(=O)(OCOC(=O)C(C)(C)C)OCOC(=O)C(C)(C)C)cc1)C(=O)N1CC(F)(F)C[C@H]1C(=O)N[C@H](C)CCC(N)=O [Example 24, (2E)-3-[4-[[bis[(2,2-dimethyl-1-oxopropoxy)methoxy]phosphinyl]difluoromethyl]phenyl]-but-2-enoyl-norleucinyl-4,4-difluoroprolinyl-(R)-4-aminopentamide] | inhibit phosphorylation of STAT3 | 

The next lines start with results.

Row | inhibition of Tyr705 phosphorylation of Stat3 (potency in words) [2] | SMILES | phosphorylation of STAT3 at the indicated time points [1]
5 | inhibit phosphorylation of STAT3 | CCCC[C@H](NC(=O)/C=C(\C)c1ccc(C(F)(F)P(=O)(OCOC(=O)C(C)(C)C)OCOC(=O)C(C)(C)C)cc1)C(=O)N1CCC[C@H]1C(=O)N[C@H](C)CCC(N)=O [Example 23, (2E)-3-[4-[[bis[(2,2-dimethyl-1-oxopropoxy)methoxy]phosphinyl]difluoromethyl]phenyl]-but-2-enoyl-norleucinyl-prolinyl-(R)-4-aminonentamide] | 
6 | inhibit phosphorylation of STAT3 | CCCC[C@H](NC(=O)/C=C(\C)c1ccc(C(F)(F)P(=O)(OCOC(=O)C(C)(C)C)OCOC(=O)C(C)(C)C)cc1)C(=O)N1CC(C)(C)C[C@H]1C(=O)N[C@H](C)CCC(N)=O [Example 25, (2E)-3-[4-[[bis[(2,2-dimethyl-1-oxopropoxy)methoxy]phosphinyl]difluoromethyl]phenyl]-but-2-enoyl-norleucinyl-4,4-dimethylprolinyl-(R)-4-aminopentamide] | 
